Assay results taken from patent publication US10662187B2, “Bruton's tyrosine kinase inhibitors” (Zibo Biopolar Changsheng Pharmaceutical Co. Ltd., priority 2016, dated 2020).

Columns and labels:
Ramos cells = experiment: Calcium flux assay, anti-IgM stimulated Ramos cells; assay type: cell-based; conditions: Ramos cells stimulated with goat anti-human IgM antibody 10 μg/ml; read-out: Ramos Ca Flux
Method: Calcium FluxAssay Calcium flux fluorescence-based assays were performed in […] (Hamamatsu Photonics) fluorometric imaging plate reader according to manufacturer instructions. […] Then 12.5 […] 2× dye loading solution (Fluo-4 NW Calcium Assay Kits, Invitrogen) was added per well of a 384-well plate. Afterwards, actively growing Ramos cells (ATCC) in RPM1640 medium supplemented with 10% FBS (Invitrogen) were washed and re-plated in assay buffer (from Fluo-4 NW Calcium Assay Kits, Invitrogen) to approximately 6.4×10^6/ml (80000 cells/12.5 μL in 384-well plates). The plates were incubated at 37° C. for 30 minutes, then at room temperature for an additional 30 minutes. The plates were now ready to be used in an experiment. Immediately after the transfer and a 10-s recording of baseline fluorescence, the compound treated cells were stimulated with a goat anti-human IgM antibody (10 μg/ml; Jackson Immuno Research) and read in a FDSS for 240 seconds. Difference between the signal and that at baseline, designated adjusted relative fluorescence unit, was calculated by using a custom Excel (Microsoft, Redmond, Wash.) template to determine IgM-induced calcium influx and its inhibition by compounds. The table belows show the result.

BTK [1] = molecular target: T1, BTK (Homo sapiens (Human), UniProt Q06187); experiment: Btk kinase assay (HTRF); assay type: biochemical; conditions: [ATP]=80 μM, BTK=3.4 nM; read-out: BTK Inhibition
In short: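 HTRF read-out with enzyme, inhibitor, ATP and 1 μM peptide substrate in 50 mM Hepes pH 7.0, 0.02% NaN3, 0.01% BSA, 0.1 mM orthovanadate. Activity measured across compound concentrations against no-inhibitor controls, with no-enzyme wells as baseline.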
Target sequence in this assay (Q06187 whole entry, species assumed): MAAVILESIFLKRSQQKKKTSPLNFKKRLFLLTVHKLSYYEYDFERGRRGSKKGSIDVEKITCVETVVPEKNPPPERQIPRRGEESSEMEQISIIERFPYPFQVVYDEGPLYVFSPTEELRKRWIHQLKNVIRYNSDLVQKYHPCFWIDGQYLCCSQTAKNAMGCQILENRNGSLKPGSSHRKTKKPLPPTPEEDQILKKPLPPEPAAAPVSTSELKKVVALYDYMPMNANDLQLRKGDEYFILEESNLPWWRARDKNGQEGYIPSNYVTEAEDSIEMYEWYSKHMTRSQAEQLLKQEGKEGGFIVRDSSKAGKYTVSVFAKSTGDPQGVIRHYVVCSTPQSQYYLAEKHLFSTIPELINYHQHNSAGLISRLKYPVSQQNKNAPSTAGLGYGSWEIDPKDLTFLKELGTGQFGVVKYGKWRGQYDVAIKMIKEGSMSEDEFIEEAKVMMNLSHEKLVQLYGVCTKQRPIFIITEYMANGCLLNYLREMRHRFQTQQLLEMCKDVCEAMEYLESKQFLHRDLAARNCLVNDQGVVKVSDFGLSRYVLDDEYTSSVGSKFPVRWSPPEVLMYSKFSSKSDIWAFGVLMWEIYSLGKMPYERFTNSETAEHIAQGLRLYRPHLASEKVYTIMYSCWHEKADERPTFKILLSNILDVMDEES

Btk [2] = molecular target: Btk (Mus musculus (Mouse), UniProt P35991); experiment: Btk occupancy in vivo (PBMCs or splenocytes, PCI-33380 labeling); conditions: after 4 hours, Babc/L mice
Method: For analysis of Btk occupancy in Babc/L mice following oral dosing of compounds after 4 hours. Isolating peripheral blood mononuclear cells (PBMCs) with mouse peripheral blood separation kit (Hao Yang Biological Manufacture CO., LTD, Tianjin) were collected from Babc/L mice (1 ml blood from two mice). Spleens were processed to splenocytes followed by 5 min incubation in red blood cell lysing buffer (from mouse peripheral blood separation kit). PBMCs or splenocytes were then PCI-33380-labeled and lysates analyzed by fluorescent gel scanning as described in cellular assays.

BTK [3] = molecular target: T1, BTK; experiment: Btk occupancy in cellular assays (PCI-33380 labeling, Jeko-1 cells); assay type: cell-based; conditions: 1.5 h pre-incubation with compound, PCI-33380 5 μM 1 h
Method: Btk Occupancy in Cellular Assays
For PCI-33380 labeling of human B cells, 10^6 Jeko-1 cells were pre-incubated with compound for 1.5 h before labeling. Then cells were treated with PCI-33380 at 5 μM for 1 h. Washed, lysed in Ripa buffer containing sample reducing agent, and analyzed by SDS/PAGE and fluorescent gel scanning using a Typhoon scanner 9500 (GE Healthcare) (Ex, 532 nm; Em, 555 nm). The gel was then blotted and total Btk levels detected by standard Western blot with Btk antibody (CST).
Target sequence in this assay (Q06187 whole entry): as the sequence (Q06187 whole entry, species assumed) above

Chain of Btk (P35991 whole entry): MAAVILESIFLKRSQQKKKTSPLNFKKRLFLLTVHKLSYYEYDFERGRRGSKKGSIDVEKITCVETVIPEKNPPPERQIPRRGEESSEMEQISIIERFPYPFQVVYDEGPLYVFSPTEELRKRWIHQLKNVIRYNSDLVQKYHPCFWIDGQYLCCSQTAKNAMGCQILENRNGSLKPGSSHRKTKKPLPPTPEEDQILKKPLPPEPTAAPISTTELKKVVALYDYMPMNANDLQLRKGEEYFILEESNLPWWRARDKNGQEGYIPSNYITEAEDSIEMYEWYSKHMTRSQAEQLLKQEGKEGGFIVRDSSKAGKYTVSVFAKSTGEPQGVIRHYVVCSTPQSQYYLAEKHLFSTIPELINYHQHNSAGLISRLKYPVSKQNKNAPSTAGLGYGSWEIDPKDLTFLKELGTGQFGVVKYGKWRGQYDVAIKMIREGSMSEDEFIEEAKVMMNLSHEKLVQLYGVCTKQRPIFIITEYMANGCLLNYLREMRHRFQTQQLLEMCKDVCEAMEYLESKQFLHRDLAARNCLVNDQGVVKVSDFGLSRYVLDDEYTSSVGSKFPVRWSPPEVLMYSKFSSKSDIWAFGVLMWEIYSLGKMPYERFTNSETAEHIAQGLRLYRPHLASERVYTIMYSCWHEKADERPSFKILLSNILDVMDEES

Row | SMILES | IC50 (Ramos cells) [nM] | IC50 (BTK [1]) [nM] | Btk occupancy in vivo (Btk [2]; 10 mg/kg single oral dose) | concentration sufficient to fully occupy the active site of Btk (BTK [3]) [nM] | Btk occupancy in vivo (Btk [2]; 5 mg/kg single oral dose)
1 | C=CC(=O)N1CCC[C@@H](n2nc(-c3ccc(Oc4cccc(Cl)c4F)cc3)c3cnccc32)C1 [Compound 20, (R)-1-(3-(3-(4-(3-chloro-2-fluorophenoxy)phenyl)-1H-pyrazolo[4,3-c]pyridin-1-yl)piperidin-1-yl)prop-2-en-1-one] | 10 to 100 | < 10 |  |  | 
2 | C=CC(=O)N1CCC[C@@H](n2nc(-c3ccc(Oc4cccc(OC)c4F)cc3)c3cnccc32)C1 [Compound 71, (R)-1-(3-(3-(4-(2-fluoro-3-methoxyphenoxy)phenyl)-1H-pyrazolo[4,3-c]pyridin-1-yl)piperidin-1-yl)prop-2-en-1-one] |  | < 10 | full occupancy | 100 | 
3 | C=CC(=O)N1CC[C@@H](n2nc(-c3ccc(Oc4ccccc4)c(F)c3)c3cnccc32)C1 [Compound 61, (R)-1-(3-(3-(3-fluoro-4-phenoxyphenyl)-1H-pyrazolo[4,3-c]pyridin-1-yl)pyrrolidin-1-yl)prop-2-en-1-one] | 100 to 1000 | < 10 |  |  | 
4 | C=CC(=O)N1CC[C@@H](n2nc(-c3ccc(Sc4cccc(F)c4)cc3)c3cnccc32)C1 [Compound 58, (R)-1-(3-(3-(4-((3-fluorophenyl)thio)phenyl)-1H-pyrazolo[4,3-c]pyridin-1-yl)pyrrolidin-1-yl)prop-2-en-1-one] | 10 to 100 | < 10 |  |  | 
5 | C=CC(=O)N1CCCC1Cn1nc(-c2ccc(Oc3cccc(OC)c3F)cc2)c2cncc(OC)c21 (centres unmarked) [Compound 91, 1-(2-((3-(4-(2-fluoro-3-methoxyphenoxy)phenyl)-7-methoxy-1H-pyrazolo[4,3-c]pyridin-1-yl)methyl)pyrrolidin-1-yl)prop-2-en-1-one] |  | < 10 |  |  | full occupancy
6 | C=CC(=O)N1CCC[C@@H](n2nc(-c3ccc(Oc4cccc(F)c4F)cc3)c3cnccc32)C1 [Compound 17, (R)-1-(3-(3-(4-(2,3-difluorophenoxy)phenyl)-1H-pyrazolo[4,3-c]pyridin-1-yl)piperidin-1-yl)prop-2-en-1-one] | 10 to 100 | < 10 |  | 100 | 
7 | C=CC(=O)N1CC[C@@H](n2nc(-c3ccc(Oc4cccc(Cl)c4F)cc3)c3cnccc32)C1 [Compound 19, (R)-1-(3-(3-(4-(3-chloro-2-fluorophenoxy)phenyl)-1H-pyrazolo[4,3-c]pyridin-1-yl)pyrrolidin-1-yl)prop-2-en-1-one] | 10 to 100 | < 10 |  |  | 
8 | C=CC(=O)N1CC[C@@H](n2nc(-c3ccc(Oc4cccc(F)c4Cl)cc3)c3cnccc32)C1 [Compound 4, (R)-1-(3-(3-(4-(2-chloro-3-fluorophenoxy)phenyl)-1H-pyrazolo[4,3-c]pyridin-1-yl)pyrrolidin-1-yl)prop-2-en-1-one] |  | < 10 | full occupancy | 100 | 
9 | C=CC(=O)N1CC[C@@H](n2nc3ccncc3c2-c2ccc(Oc3cccc(Cl)c3Cl)cc2)C1 [Compound 41, (R)-1-(3-(3-(4-(2,3-dichlorophenoxy)phenyl)-2H-pyrazolo[4,3-c]pyridin-2-yl)pyrrolidin-1-yl)prop-2-en-1-one] | 10 to 100 | < 10 |  | 100 | 
10 | C=CC(=O)N1CCC[C@@H](n2nc(-c3ccc(Oc4cccc(OC)c4Cl)cc3)c3cnccc32)C1 [Compound 2, (R)-1-(3-(3-(4-(2-chloro-3-methoxyphenoxy)phenyl)-1H-pyrazolo[4,3-c]pyridin-1-yl)piperidin-1-yl)prop-2-en-1-one] |  | < 10 | full occupancy | 100 | 
11 | C=CC(=O)N1CC[C@@H](n2nc(-c3ccc(Oc4ccccc4)c(Cl)c3)c3cnccc32)C1 [Compound 11, (R)-1-(3-(3-(3-chloro-4-phenoxyphenyl)-1H-pyrazolo[4,3-c]pyridin-1-yl)pyrrolidin-1-yl)prop-2-en-1-one] | 100 to 1000 | < 10 |  |  | 
12 | C=CC(=O)N1CC[C@@H](n2nc(-c3ccc(Oc4cccc(F)c4F)cc3)c3cnccc32)C1 [Compound 18, (R)-1-(3-(3-(4-(2,3-difluorophenoxy)phenyl)-1H-pyrazolo[4,3-c]pyridin-1-yl)pyrrolidin-1-yl)prop-2-en-1-one] | 10 to 100 | < 10 |  |  | 
13 | C=CC(=O)N1CCC[C@@H](n2nc(-c3ccc(Oc4cccc(OC)c4F)cc3)c3cncc(OC4CCOC4)c32)C1 (stereo partly drawn) [Compound 99, 1-((3R)-3-(3-(4-(2-fluoro-3-methoxyphenoxy)phenyl)-7-((tctrahydrofuran-3-yl)oxy)-1H-pyrazolo[4,3-c]pyridin-1-yl)piperidin-1-yl)prop-2-en-1-one] |  | < 10 |  | 100 | 
14 | C=CC(=O)N1CCC[C@@H](n2nc3ccncc3c2-c2ccc(Oc3cccc(Cl)c3Cl)cc2)C1 [Compound 43, (R)-1-(3-(3-(4-(2,3-dichlorophenoxy)phenyl)-2H-pyrazolo[4,3-c]pyridin-2-yl)piperidin-1-yl)prop-2-en-1-one] | 10 to 100 | < 10 |  | 100 | 
15 | C=CC(=O)N1CCC[C@@H](n2nc(-c3ccc(Oc4cccc(F)c4)cc3)c3cnccc32)C1 [Compound 62, (R)-1-(3-(3-(4-(3-fluorophenoxy)phenyl)-1H-pyrazolo[4,3-c]pyridin-1-yl)piperidin-1-yl)prop-2-en-1-one] | 100 to 1000 | < 10 |  |  | 
16 | C=CC(=O)N1CC[C@@H](n2nc(-c3ccc(Oc4cccc(OC)c4F)cc3)c3cnccc32)C1 [Compound 3, (R)-1-(3-(3-(4-(2-fluoro-3-methoxyphenoxy)phenyl)-1H-pyrazolo[4,3-c]pyridin-1-yl)pyrrolidin-1-yl)prop-2-en-1-one] |  | < 10 | full occupancy | 50 | 
17 | C=CC(=O)N1CC[C@@H](n2nc(-c3ccc(Oc4cccc(OC)c4F)cc3)c3cncc(OCC)c32)C1 [Compound 80, (R)-1-(3-(7-cthoxy-3-(4-(2-fluoro-3-methoxyphenoxy)phenyl)-1H-pyrazolo[4,3-c]pyridin-1-yl)pyrrolidin-1-yl)prop-2-en-1-one] |  | < 10 |  | 50 | 
18 | C=CC(=O)N1CCC[C@@H](n2nc(-c3ccc(Oc4cccc(OC)c4F)cc3)c3cncc(OCC)c32)C1 [Compound 73, (R)-1-(3-(7-ethoxy-3-(4-(2-fluoro-3-methoxyphenoxy)phenyl)-1H-pyrazolo[4,3-c]pyridin-1-yl)piperidin-1-yl)prop-2-en-1-one] |  | < 10 |  | 100 | full occupancy
19 | C=CC(=O)N1CCC[C@@H](n2nc(-c3ccc(Oc4cccc(OC)c4F)cc3)c3cncc(OCCC)c32)C1 [Compound 77, (R)-1-(3-(3-(4-(2-fluoro-3-methoxyphenoxy)phenyl)-7-propoxy-1H-pyrazolo[4,3-c]pyridin-1-yl)piperidin-1-yl)prop-2-en-1-one] |  | < 10 |  | 25 | 
20 | C=CC(=O)N1CC[C@@H](n2nc(-c3ccc(Oc4cccc(OC)c4)cc3)c3cnccc32)C1 [Compound 64, (R)-1-(3-(3-(4-(3-methoxyphenoxy)phenyl)-1H-pyrazolo[4,3-c]pyridin-1-yl)pyrrolidin-1-yl)prop-2-en-1-one] | 10 to 100 | < 10 |  |  | 
21 | C=CC(=O)N1CC[C@@H](n2nc(-c3ccc(Oc4cccc(F)c4)cc3)c3cnccc32)C1 [Compound 63, (R)-1-(3-(3-(4-(3-fluorophenoxy)phenyl)-1H-pyrazolo[4,3-c]pyridin-1-yl)pyrrolidin-1-yl)prop-2-en-1-one] | 100 to 1000 | < 10 |  |  | 
